The source of these data is ChEMBL document CHEMBL3745668, “Synthesis and biological evaluation of novel 5-hydroxylaminoisoxazole derivatives as lipoxygenase inhibitors and metabolism enhancing agents” (Bioorg Med Chem, 2016).

The source made the active and inactive calls. The calls are words filed in the database; no cut-off is given here.

One may read the IC50 as the concentration needed to halve the response being measured. A word on the EC50: it is the concentration at which the effect is half-maximal.

Data set [1] is filed under the species Rattus norvegicus. Nature of the data set: Increase in oxygen consumption rate of mitochondrial coupled state respiration in albino rat liver mitochondria using succinate as substrate at 10 uM by XF96 extracellular flux analysis in presence of rotenone. The format is functional.
Data set [2] is filed under the species Rattus norvegicus. Nature of the data set: Effect on calcium-induced depolarization of albino rat liver mitochondria using succinate as substrate by safranine A staining based assay in presence of rotenone or glutamate/malate. The data set is classed as functional.
The species entered for data set [3] is Rattus norvegicus. Nature of the data set: Effect on mitochondrial membrane potential in albino rat liver mitochondria using succinate as substrate by safranine A staining based assay in presence of rotenone or glutamate/malate. The data set is classed as functional.
The species entered for data set [4] is Rattus norvegicus. Nature of the data set: Increase in oxygen consumption rate of mitochondrial resting respiration in albino rat liver mitochondria at 10 uM by XF96 extracellular flux analysis in presence of oligomycin. The format is functional.
Data set [5] deals with Brain. Nature of the data set: Antioxidant activity in albino rat brain homogenate assessed as inhibition of Fe(III)-induced lipid peroxidation after 60 mins by TBARS assay. The note with it: 1 h. The data set is classed as functional, tissue-based.
The target in data set [6] is T1, Seed linoleate 13S-lipoxygenase-1 (Glycine max, UniProt P08170).
T1 sequence (P08170 whole entry): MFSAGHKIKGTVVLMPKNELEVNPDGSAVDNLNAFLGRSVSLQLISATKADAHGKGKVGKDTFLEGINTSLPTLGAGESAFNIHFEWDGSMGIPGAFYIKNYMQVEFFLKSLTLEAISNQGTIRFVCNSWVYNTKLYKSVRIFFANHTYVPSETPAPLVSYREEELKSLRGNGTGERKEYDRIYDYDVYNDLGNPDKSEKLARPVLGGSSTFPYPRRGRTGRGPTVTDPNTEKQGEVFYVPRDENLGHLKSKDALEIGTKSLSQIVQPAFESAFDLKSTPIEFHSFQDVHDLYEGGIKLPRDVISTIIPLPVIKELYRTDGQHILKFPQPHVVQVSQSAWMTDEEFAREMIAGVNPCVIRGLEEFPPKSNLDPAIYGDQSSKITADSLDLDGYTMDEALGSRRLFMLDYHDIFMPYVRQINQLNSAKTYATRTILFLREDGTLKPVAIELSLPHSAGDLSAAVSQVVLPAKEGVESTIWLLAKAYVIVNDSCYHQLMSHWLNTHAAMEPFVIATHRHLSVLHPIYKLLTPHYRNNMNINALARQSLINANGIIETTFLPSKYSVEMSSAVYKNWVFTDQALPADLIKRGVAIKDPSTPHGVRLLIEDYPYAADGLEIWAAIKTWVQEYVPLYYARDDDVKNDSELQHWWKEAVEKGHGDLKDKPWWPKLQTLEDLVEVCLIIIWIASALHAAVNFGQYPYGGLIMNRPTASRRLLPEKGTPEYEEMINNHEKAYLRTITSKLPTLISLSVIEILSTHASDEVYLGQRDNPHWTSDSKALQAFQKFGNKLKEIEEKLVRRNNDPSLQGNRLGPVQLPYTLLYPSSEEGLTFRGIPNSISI
Nature of the data set: Inhibition of soybean LOX1 assessed as reduction in linoleic acid oxidation measured every 10 s for 10 mins by spectrophotometry analysis.

For data set [7], the species on record is Rattus norvegicus. Nature of the data set: Increase in FCCP-stimulated oxygen consumption rate of mitochondrial coupled state respiration in albino rat liver mitochondria at 10 uM by XF96 extracellular flux analysis. The data set is classed as functional.
Data set [8] in a line: Antioxidant activity assessed as DPPH radical scavenging activity after 30 mins by spectrophotometry analysis. The format is physicochemical. On the technique in general: Loss of DPPH colour is used to gauge radical scavenging.
Data set [9] concerns Brain. Nature of the data set: Antioxidant activity in albino rat brain homogenate assessed as inhibition of Fe(II)-induced lipid peroxidation after 60 mins by TBARS assay. The format is functional, tissue-based.
A short description of data set [10]: Cytotoxicity against albino rat primary cerebellar granule neurons assessed as reduction in cell viability at 30 uM after 24 hrs by MTT assay. The note with it: primary cerebellar granule neuron.
Data set [11] concerns the target T2, Seed linoleate 13S-lipoxygenase-1 (Glycine max) (UniProt P08170).
T2 sequence (whole entry): T1 sequence (P08170 whole entry)
Nature of the data set: Inhibition of soybean LOX1 assessed as reduction in linoleic acid oxidation at 50 uM measured every 10 s for 10 mins by spectrophotometry analysis.

A short description of data set [12]: Cytotoxicity against albino rat primary cerebellar granule neurons assessed as reduction in cell viability at 30 uM after 24 hrs by MTT assay relative to control. The settings on record: primary cerebellar granule neuron. A general note: Formazan colour is commonly taken as a measure of viable cells.
Another data set deals with SH-SY5Y. Nature of the data set: Cytotoxicity against human SH-SY5Y cells assessed as reduction in cell viability at 30 uM after 24 hrs by MTT assay relative to control. The data set is classed as cell-based.
In data set [13] the test system is Brain. Nature of the data set: Antioxidant activity in Wstar rat brain homogenate assessed as inhibition of Fe(II)-induced TBARS formation incubated for 15 mins by spectrophotometry analysis. The settings on record: 0.25 h. The data set is classed as functional, tissue-based.
A short description of data set [14]: Antioxidant activity assessed as DPPH radical scavenging activity after 20 mins. The data set is classed as physicochemical.
[15] abbreviates: Rattus norvegicus, Brain, 1 h, read-out: IC50.

As to `O=C(OC12CC3CC(CC(C3)C1)C2)c1cc(N(O)C2CCCO2)on1` (stereo not given), the result in the data set filed under Rattus norvegicus [1] and in the data set filed under Rattus norvegicus [7] was Active. In addition, the outcome in the data set filed under Rattus norvegicus [2], in the data set listed under Rattus norvegicus [3] and in the data set listed under Rattus norvegicus [4] was inactive. The IC50 amounted to 1.37 µM in the data set with Brain [5], 25 µM in data set [6] (read-out: IC50) and 0.33 µM in the data set with Brain [9] (setting [15]). In addition, in [8], the EC50 was 16 µM.
For the molecule `CC12CC3CC(C)(C1)CC(OC(=O)c1cc(N(O)C4CCCO4)on1)(C3)C2` (stereo not given), the Activity entry in [10] is recorded as “Non-toxic”. Moreover, the result in the data set listed under Rattus norvegicus [1] and in the data set filed under Rattus norvegicus [7] was Active. The outcome in the data set listed under Rattus norvegicus [2], in the data set filed under Rattus norvegicus [3] and in the data set listed under Rattus norvegicus [4] was inactive. For the same molecule, the inhibition result in data set [11] was “Active”. Further, the values for the IC50 (in the data set with Brain [5]; in data set [6] (read-out: IC50); in the data set with Brain [9] (setting [15])) were 1.48 µM, 1 µM and 5.16 µM, respectively. Further, the EC50 in data set [8] came to 38 µM.
`CC(C)OC(=O)C12CC3CC(CC(OC(=O)c4cc(N(O)C5CCCO5)on4)(C3)C1)C2` (stereo not given): the Activity result in data set [10] is recorded as “Non-toxic”. The outcome in the data set filed under Rattus norvegicus [1] and in the data set filed under Rattus norvegicus [7] was Active. Moreover, the outcome in the data set filed under Rattus norvegicus [2], in the data set listed under Rattus norvegicus [3] and in the data set filed under Rattus norvegicus [4] was inactive. For the same molecule, the IC50 in the data set with Brain [5] worked out at 1.58 µM; in data set [6] (read-out: IC50), 277 µM; in the data set on Brain [9] (setting [15]) it was 2.74 µM. Also, the concentration giving a half-maximal response (EC50) in data set [8] is more than 100 µM.
As for `O=C(OCCC12CC3CC(CC(C3)C1)C2)c1cc(N(O)C2CCCO2)on1` (stereo not given), the outcome in the data set filed under Rattus norvegicus [1] and in the data set filed under Rattus norvegicus [7] was Active. The outcome in the data set listed under Rattus norvegicus [2], in the data set listed under Rattus norvegicus [3] and in the data set filed under Rattus norvegicus [4] was inactive. Further, the results for the IC50 (in the data set on Brain [5]; in data set [6] (read-out: IC50); in the data set on Brain [9] (setting [15])) were 5.25 µM, 0.4 µM and 3.15 µM, respectively. Moreover, in data set [12], the Activity was 77%. In data set [8], the EC50 stood at 21 µM.
For `O=C(OC1C2CC3CC(C2)CC1C3)c1cc(N(O)C2CCCO2)on1` (stereo not given), the result in the data set listed under Rattus norvegicus [2] and in the data set filed under Rattus norvegicus [3] was inactive. Also, the IC50 in the data set on Brain [5] is 1.21 µM; in data set [6] (read-out: IC50), 4 µM; in the data set on Brain [9] (setting [15]), 10.5 µM. Moreover, the EC50 in data set [8] amounted to 71 µM.
Consider `O=C(OCc1ccc(C23CC4CC(CC(C4)C2)C3)cc1)c1cc(N(O)C2CCCO2)on1` (stereo not given), for which the Activity result in data set [10] is “Non-toxic”. The result in the data set filed under Rattus norvegicus [1] and in the data set filed under Rattus norvegicus [7] was Active. In addition, the outcome in the data set filed under Rattus norvegicus [2], in the data set filed under Rattus norvegicus [3] and in the data set listed under Rattus norvegicus [4] was inactive. Further, the IC50 is 5.45 µM in the data set on Brain [5], “Not Active” in data set [6] and 3.41 µM in the data set with Brain [9] (setting [15]). For the same molecule, in data set [8], the EC50 was more than 100 µM.
With `O=C(OCC12CC3CC(CC(C3)C1)C2)c1cc(N(O)C2CCCO2)on1` (stereo not given), the Activity entry was “Non-toxic” in data set [10] and 22% with SH-SY5Y. Also, the outcome in the data set listed under Rattus norvegicus [1] and in the data set filed under Rattus norvegicus [7] was Active. The outcome in the data set filed under Rattus norvegicus [2], in the data set listed under Rattus norvegicus [3] and in the data set filed under Rattus norvegicus [4] was inactive. Also, the IC50 in the data set on Brain [5] is 22 µM; in data set [6] (read-out: IC50), 16 µM; with Brain [9] (setting [15]), 6.58 µM. Further, the EC50 in data set [8] is 70 µM.
`C[C@H](c1cc2ccccc2s1)N(O)C(N)=O`: the IC50 in the data set with Brain [13] is more than 50 µM; in [14], 43 µM. Also, in data set [8], the EC50 is 14 µM.
For `O=C(OCCOC12CC3CC(CC(C3)C1)C2)c1cc(N(O)C2CCCO2)on1` (stereo not given), in [10], the Activity entry is given as “Non-toxic”. Moreover, the result in the data set listed under Rattus norvegicus [1] and in the data set listed under Rattus norvegicus [7] was Active. The result in the data set listed under Rattus norvegicus [2], in the data set listed under Rattus norvegicus [3] and in the data set listed under Rattus norvegicus [4] was inactive. Moreover, the IC50 was 35 µM with Brain [5], “Not Active” in data set [6] and “Not Active” in the data set with Brain [9]. In addition, the EC50 in [8] was more than 100 µM.
